Measured values published in patent publication US11339130B1 (Blade Therapeutics, Inc., priority 2016, dated 2022).

Assays:
Human Calpain 2/NS1 = biological target: T1, Human Calpain 2/NS1 (Homo sapiens, UniProt P17655); assay: Calpain inhibition continuous fluorescence (FRET) assay, Human Calpain 2/NS1; assay type: biochemical; settings: read-out: Human Calpain 2/NS1 IC50
T1 sequence (P17655 1-700): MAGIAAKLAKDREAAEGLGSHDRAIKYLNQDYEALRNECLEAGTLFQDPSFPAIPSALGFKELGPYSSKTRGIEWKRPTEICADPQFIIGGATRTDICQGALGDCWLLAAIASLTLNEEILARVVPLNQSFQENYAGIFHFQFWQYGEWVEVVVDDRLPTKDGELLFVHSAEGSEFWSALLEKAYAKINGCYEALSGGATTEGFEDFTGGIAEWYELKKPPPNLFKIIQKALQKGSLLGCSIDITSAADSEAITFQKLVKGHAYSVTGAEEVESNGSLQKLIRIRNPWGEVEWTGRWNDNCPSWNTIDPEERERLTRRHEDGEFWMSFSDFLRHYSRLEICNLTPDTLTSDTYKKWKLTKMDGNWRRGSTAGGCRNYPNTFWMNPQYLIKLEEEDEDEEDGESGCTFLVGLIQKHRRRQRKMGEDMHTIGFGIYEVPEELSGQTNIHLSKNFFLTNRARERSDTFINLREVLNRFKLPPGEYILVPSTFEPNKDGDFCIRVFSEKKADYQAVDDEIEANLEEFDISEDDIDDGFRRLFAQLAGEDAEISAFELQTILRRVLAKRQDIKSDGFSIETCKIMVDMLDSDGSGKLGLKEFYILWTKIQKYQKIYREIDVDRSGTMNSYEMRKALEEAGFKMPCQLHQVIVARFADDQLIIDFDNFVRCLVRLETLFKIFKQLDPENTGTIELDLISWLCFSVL
T1 sequence (P04632 1-268 partner): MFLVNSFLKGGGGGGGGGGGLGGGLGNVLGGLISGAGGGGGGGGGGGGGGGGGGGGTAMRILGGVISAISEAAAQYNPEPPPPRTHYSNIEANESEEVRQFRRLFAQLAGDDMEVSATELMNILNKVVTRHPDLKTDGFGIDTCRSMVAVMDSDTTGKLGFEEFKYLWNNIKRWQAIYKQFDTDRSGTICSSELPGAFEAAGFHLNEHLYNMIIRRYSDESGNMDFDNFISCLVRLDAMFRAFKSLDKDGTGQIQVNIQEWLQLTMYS
Procedure, shortened: (§1)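 Fluorescence increase from the cleaved 5-FAM/QXL 520 substrate, read at 490/520 nm, gave activity. Calcium was supplied with the substrate to activate the enzyme in situ after a 25C enzyme-inhibitor preincubation, and IC50s were fit from initial slopes.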

Human Calpain 9/NS1 = biological target: T2, Human Calpain 9/NS1 (Homo sapiens, UniProt O14815); assay: Calpain inhibition continuous fluorescence (FRET) assay, Human Calpain 9/NS1; assay type: biochemical; settings: read-out: Human Calpain 9/NS1 IC50
T2 sequence (O14815 1-690): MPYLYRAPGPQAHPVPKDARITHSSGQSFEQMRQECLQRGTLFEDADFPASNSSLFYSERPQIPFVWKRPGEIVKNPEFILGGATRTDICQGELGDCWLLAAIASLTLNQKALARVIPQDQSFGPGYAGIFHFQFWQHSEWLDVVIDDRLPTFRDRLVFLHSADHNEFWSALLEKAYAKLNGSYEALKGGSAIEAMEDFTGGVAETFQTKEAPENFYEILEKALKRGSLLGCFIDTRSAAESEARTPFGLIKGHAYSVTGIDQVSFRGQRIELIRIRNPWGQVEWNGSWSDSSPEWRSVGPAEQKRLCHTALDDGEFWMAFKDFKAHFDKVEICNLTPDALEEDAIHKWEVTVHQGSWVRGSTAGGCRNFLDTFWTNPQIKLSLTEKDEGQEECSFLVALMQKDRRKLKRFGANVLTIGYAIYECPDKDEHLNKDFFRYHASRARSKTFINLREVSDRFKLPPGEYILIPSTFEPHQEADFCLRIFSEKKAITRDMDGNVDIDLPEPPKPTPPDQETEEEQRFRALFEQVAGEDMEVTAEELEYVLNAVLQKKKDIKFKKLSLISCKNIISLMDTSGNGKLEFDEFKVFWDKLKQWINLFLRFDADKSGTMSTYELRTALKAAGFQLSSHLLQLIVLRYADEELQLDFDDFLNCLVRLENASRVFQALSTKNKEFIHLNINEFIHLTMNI
T2 sequence (P04632 1-268 partner): T1 sequence (P04632 1-268 partner)
Procedure, shortened: as §1

Human Calpain 1/NS1 = biological target: T3, Human Calpain 1/NS1 (Homo sapiens, UniProt P07384); assay: Calpain inhibition continuous fluorescence (FRET) assay, Human Calpain 1/NS1; assay type: biochemical; settings: read-out: Human Calpain 1/NS1 IC50
T3 sequence (P07384 1-714): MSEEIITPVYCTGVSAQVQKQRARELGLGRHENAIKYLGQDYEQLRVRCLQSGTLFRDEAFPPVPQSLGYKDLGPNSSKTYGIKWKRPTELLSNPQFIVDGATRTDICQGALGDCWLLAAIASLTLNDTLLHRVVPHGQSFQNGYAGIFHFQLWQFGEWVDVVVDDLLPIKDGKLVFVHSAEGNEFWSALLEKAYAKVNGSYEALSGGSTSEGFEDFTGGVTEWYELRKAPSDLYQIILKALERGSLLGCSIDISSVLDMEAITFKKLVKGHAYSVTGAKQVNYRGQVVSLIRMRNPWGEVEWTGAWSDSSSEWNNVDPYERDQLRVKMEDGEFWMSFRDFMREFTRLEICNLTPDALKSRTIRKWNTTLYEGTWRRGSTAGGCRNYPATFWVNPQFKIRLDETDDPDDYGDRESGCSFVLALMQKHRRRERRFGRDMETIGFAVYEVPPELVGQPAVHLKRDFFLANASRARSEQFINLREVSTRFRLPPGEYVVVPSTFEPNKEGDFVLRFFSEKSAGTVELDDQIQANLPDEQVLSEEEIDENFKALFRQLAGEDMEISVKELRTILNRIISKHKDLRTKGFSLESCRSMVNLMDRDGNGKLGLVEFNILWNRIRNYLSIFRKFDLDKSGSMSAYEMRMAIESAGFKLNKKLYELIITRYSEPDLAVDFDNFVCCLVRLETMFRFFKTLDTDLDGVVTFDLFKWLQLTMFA
T3 sequence (P04632 1-268 partner): T1 sequence (P04632 1-268 partner)
Procedure, shortened: as §1

[1] = system: Calpain activity in SH-SY5Y cells (SBDP-150); assay: SH-SY5Y Spectrin western blot assay (SBDP-150 breakdown product, A23187-induced); assay type: cell-based; settings: Homo sapiens; SH-SY5Y cells, A23187-induced SBDP-150, western blot; read-out: SH-SY5Y Spectrin IC50
[2] = system: Calpain activity in SH-SY5Y cells; assay: SH-SY5Y + AMC fluorescence assay (Suc-LLVY-AMC substrate); assay type: cell-based; settings: read-out: SH-SY5Y + AMC IC50

| IC50 (Human Calpain 2/NS1) [µM] | IC50 (Human Calpain 9/NS1) [µM] | IC50 (Human Calpain 1/NS1) [µM] | IC50 [1] [µM] | IC50 [2] [µM] | Structure (SMILES) |
| --- | --- | --- | --- | --- | --- |
| < 3 | < 3 | < 3 | 10 to 25 | < 10 | NC(=O)C(=O)[C@H](Cc1ccccc1)NC(=O)c1cn(-c2ccccc2)nc1-c1ccccc1 [Compound 309, (S)—N-(4-amino-3,4-dioxo-1-phenylbutan-2-yl)-1,3-diphenyl-1H-pyrazole-4-carboxamide] |
| < 3 | < 3 | < 3 | > 25 | > 25 | Cn1cc(C(=O)N[C@@H](Cc2ccccc2)C(=O)C(N)=O)c(-c2cnccn2)n1 [Compound 313, (S)—N-(4-amino-3,4-dioxo-1-phenylbutan-2-yl)-1-methyl-3-(pyrazin-2-yl)-1H-pyrazole-4-carboxamide] |
| < 3 | < 3 | < 3 | 10 to 25 | > 25 | Cn1cc(C(=O)N[C@H](C=O)Cc2ccccc2)c(-c2ccccc2)n1 [Compound 317, (S)-1-methyl-N-(1-oxo-3-phenylpropan-2-yl)-3-phenyl-1H-pyrazole-4-carboxamide] |
| < 3 | < 3 | < 3 | 10 to 25 | > 25 | Cc1cc(C(=O)NC(Cc2ccccc2)C(=O)C(N)=O)c(-n2ccc(-c3ccccc3)n2)s1 (centres unmarked) [Compound 320, N-(4-amino-3,4-dioxo-1-phenylbutan-2-yl)-5-methyl-2-(3-phenyl-1H-pyrazol-1-yl)thiophene-3-carboxamide] |
| < 3 | < 3 | < 3 | < 10 | > 25 | NC(=O)C(=O)C(Cc1ccccc1)NC(=O)c1nsnc1-c1cccc(F)c1 (centres unmarked) [Compound 321, N-(4-amino-3,4-dioxo-1-phenylbutan-2-yl)-4-(3-fluorophenyl)-1,2,5-thiadiazole-3-carboxamide] |
| < 3 | < 3 | < 3 | 10 to 25 | > 25 | Cc1nc(-c2ccccc2)c(C(=O)N[C@H](C=O)Cc2ccccc2)o1 [Compound 322, (S)-2-methyl-N-(1-oxo-3-phenylpropan-2-yl)-4-phenyloxazole-5-carboxamide] |
| < 3 | < 3 | < 3 | > 25 | > 25 | Cc1cccc(-c2nsnc2C(=O)NC(Cc2ccccc2)C(=O)C(N)=O)c1 (centres unmarked) [Compound 325, N-(4-amino-3,4-dioxo-1-phenylbutan-2-yl)-4-(M-tolyl)-1,2,5-thiadiazole-3-carboxamide] |
| < 3 | < 3 | < 3 | 10 to 25 | < 10 | Cc1ccccc1-c1nsnc1C(=O)NC(Cc1ccccc1)C(=O)C(N)=O (centres unmarked) [Compound 326, N-(4-amino-3,4-dioxo-1-phenylbutan-2-yl)-4-(o-tolyl)-1,2,5-thiadiazole-3-carboxamide] |
| < 3 | < 3 | < 3 | < 10 | < 10 | NC(=O)C(=O)C(Cc1ccccc1)NC(=O)c1nsnc1-c1ccccc1F (centres unmarked) [Compound 327, N-(4-amino-3,4-dioxo-1-phenylbutan-2-yl)-4-(2-fluorophenyl)-1,2,5-thiadiazole-3-carboxamide] |
| < 3 | < 3 | < 3 | 10 to 25 | > 25 | Cn1cc(C(=O)N[C@H](C=O)Cc2ccccc2)c(-c2cccc(F)c2)n1 [Compound 328, (S)-3-(3-fluorophenyl)-1-methyl-N-(1-oxo-3-phenylpropan-2-yl)-1H-pyrazole-4-carboxamide] |
| < 3 | < 3 | < 3 | > 25 | > 25 | Cc1cccc(-c2nn(C)cc2C(=O)N[C@H](C=O)Cc2ccccc2)c1 [Compound 329, (S)-1-methyl-N-(1-oxo-3-phenylpropan-2-yl)-3-(M-tolyl)-1H-pyrazole-4-carboxamide] |
| < 3 | < 3 | < 3 | 10 to 25 | 10 to 25 | O=C[C@H](Cc1ccccc1)NC(=O)c1cn(C2CC2)nc1-c1ccccc1 [Compound 330, (S)-1-cyclopropyl-N-(1-oxo-3-phenylpropan-2-yl)-3-phenyl-1H-pyrazole-4-carboxamide] |
| < 3 | < 3 | < 3 | < 10 | > 25 | Cc1cc(C)cc(C[C@H](NC(=O)c2cn(C)nc2-c2ccccc2)C(=O)C(N)=O)c1 [Compound 331] |
| < 3 | < 3 | < 3 | > 25 | > 25 | CC[C@H](NC(=O)c1cn(C)nc1-c1ccccc1)C(=O)C(N)=O [Compound 332, (S)—N-(1-amino-1,2-dioxopentan-3-yl)-1-methyl-3-phenyl-1H-pyrazole-4-carboxamide] |
| < 3 | < 3 | < 3 | > 25 | > 25 | CC[C@@H](C)[C@H](NC(=O)c1cn(C)nc1-c1ccccc1)C(=O)C(N)=O [Compound 333, N-((3S,4R)-1-amino-4-methyl-1,2-dioxohexan-3-yl)-1-methyl-3-phenyl-1H-pyrazole-4-carboxamide] |
| < 3 | < 3 | < 3 | > 25 | < 10 | Cn1cc(C(=O)N[C@@H](Cc2ccccc2)C(=O)C(=O)NCc2ncco2)c(-c2ccccc2)n1 [Compound 334, (S)-1-methyl-N-(4-((oxazol-2-ylmethyl)amino)-3,4-dioxo-1-phenylbutan-2-yl)-3-phenyl-1H-pyrazole-4-carboxamide] |
